Experimental data taken from patent US11352374B2 (University of Alaska Anchorage, priority 2015, dated 2022).
“And” between values parts separate entries of the source, which are not always exact repeats. Equal entries are not always repeated. Where two headings read alike, the source gives them in different places.

Columns and labels:
[1] = CO released on auto-decomposition in water at 37° C., head space measured with CO meter; type: physicochemical; conditions: for CO release rate at 24 hours, CO meter, Autodecomposition / % CO liberated at 24 hours by CO meter / CO release (in words), CO meter: 37° C., 24 hours; for Rate of % CO released by CORCBs, Autodecomposition / Rate of % CO released by CORCB sodium salts, Autodecomposition: per 24 hour
Experimental: (§1) A test to confirm that CO is one of the decomposition products from CORCBs is done by utilizing commercially available CO meter. Four mole of the compounds at the concentrations of 6-12 mg/mL in aqueous solution was incubated at 37° C. in a sealed vessel with 50 mL gas space. CO meter was used to read the concentration of liberated CO gas from the solution. Measurement by CO meter in ppm, after converting to the micromole amount, was used for calculating the percent CO released based on the original amount of compound.
CO liberated from the molecules and coming out to the head space are detected and quantified by using CO meter.

[2] = CO released in the presence of H2O2, CO meter; type: physicochemical; conditions: for CO released with 3 equivalents H2O2: 3 equivalents H2O2, 12 hours at 37° C. (FIG. 9); for Rate of % CO released by CORCBs, With H2O2: H2O2 equivalents not given
Experimental: as §1
(§2) The two tested are the common ROS formed naturally in the cells—a non-radical hydrogen peroxide (H2O2) and Fenton reagent which is a more reactive hydroxyl radical (.OH) formed from Fe^2+ and H2O2. Four mole of CORCB compounds were mixed in an aqueous solution with ROS and incubated in a sealed vessel. At respective times, the head space air was injected into the meter to read the amount of CO produced. For analysis by NMR spectroscopy, the reaction mixture was prepared in NMR tube in D2O solvent and incubated for the amount of time indicated.

[3] = CO released in the presence of Fenton reagent (hydroxyl radical), CO meter; type: physicochemical; conditions: per 5 minutes
Experimental: as §1
as §2, with “All amine carboxyboranes express a faster CO release rate when incubated with the reactive oxygen species. The” for “The”, “indicated. While some CORCBs have increased amount of CO produced when treated with 3 times equivalents of H2O2, CORCB-1 produces similar or less amount of CO. In every sample, either acid or salt form, the hydroxyl radical extracts the amount of CO to a much higher magnitude within a very short amount of time.” for “indicated.”

[4] = Decomposition (amine release) in the presence of H2O2 monitored by 1H NMR; type: physicochemical; conditions: for Decomposition rate at 24 hours, 1H NMR, With 1.5x H2O2: 1.5 equivalents H2O2, 37° C.
Experimental: as §2
The reaction with H2O2 is slow-acting, therefore, NMR spectroscopy can be used for monitoring the rate.

physchem = conditions: for CO release rate relative to CORCB-1: acid forms; for auto-decomposition of salts (in words): salts in D2O
Experimental: The kinetics of compound decomposition was followed by observing the ratio of the amount of free amine group to the original compound using ^1H NMR. For instance, Hexamethylenetetramine carboxyborane (CORCB-1) in D2O at the concentration of 12 mg/mL was incubated at 37° C. in the standard NMR tube. ^1H NMR spectra were obtained at different time points to study the kinetics of product formation. […] The ratio of integrated peaks were used for determining the percent of each species present and plotted as a function of time to show the kinetics of auto-decomposition.
^1H, ^11B, and ^13C NMR spectra were recorded at different time points to study the kinetics as well as to observe transformation of CORCB-1 into the products.
In order to determine whether CO is produced in physiological condition, CORCB acid forms were dissolved in aqueous solution at neutral pH. The solution was then subjected to incubation at 37° C. for extended period of time. For studies using NMR, CORCBs were dissolved in D2O. The kinetics of CORCB molecules breaking down to produce CO is determined by taking ^1H NMR spectra at various time points (FIG. 3).
CORCB sodium and ammonium salts were also tested for decomposition by using ^1H NMR spectroscopy. Samples were set up as in Example 1 and rate of decomposition measured (FIG. 4).

[5] = tested on: fibroblast tumor cells (Hs 895.T) and normal fibroblast cells (Hs 895.Sk); conditions: human, 48 h, 1 mM
Experimental: (§3) Cells were seeded at the density of 3×10^3 cells per well in 96-well plate with different concentrations of CORCBs in DMEM media without FBS, and incubated at 37° C. with 5% CO2 for 2 days.

RAW264.7 cells = assay: Cytotoxicity / cell viability, Cell Titer Blue assay
Experimental: To test the anti-inflammatory effect of CORCBs, mouse macrophage cells (RAW264.7) were used. 2×10^4 cells per well was seeded in 96-well plate with different concentrations of CORCBs. Cells were incubated in DMEM with 10% FBS at 37° C. and 5% CO2 for 24 hours. LPS (100 ng/mL) was then added and incubated for 4 additional hours. The media containing secreted inflammatory cytokines were collected and these cells were subjected to cell viability test to check their viability.
Cytotoxicity of CORCBs was tested with RAW264.7 cells using Cell Titer Blue assay. In brief, cells were seeded at the density of 2×10^4 cells per well in 96-well plate with different concentrations of CORCBs. Cells were incubated in DMEM with 10% FBS at 37° C. and 5% CO2 for 24 hours. Cell Titer Blue reagent was added into the wells and incubated for 4 more hours in the normal cell growth conditions. The fluorescence signal of the converted reagent resulted from the viable cells was measured.

[6] = Solubility in water / D2O; conditions: water or D2O
[7] = tested on: normal fibroblast cells (Hs 895.Sk); assay: Cell viability in DMEM without FBS, Cell Titer Blue, normal cells; conditions: 2 mM, 48 hours
Experimental: as §3

[8] = tested on: normal human skin fibroblast cells (Hs 895.Sk)
Experimental: This was tested by using a chemotherapy drug, imatinib, in normal human skin fibroblast cells (Hs 895.Sk). The cultures were treated with 20 μM and 40 μM concentration of imatinib as controls to see their toxicity. Samples with mixtures of CORCB-1 and imatinib were also incubated and cell viability was determined on 2, 4, and 6 days. Media was exchanged every 2 days with fresh reagents.

[9] = 24 hours, 1.5 equivalents H2O2, 37° C.

## O=C(O)B[n+]1ccccc1
[1]
  CO release rate at 24 hours, CO meter, Autodecomposition: 3%
  Rate of % CO released by CORCBs, Autodecomposition: 2.99 ± 0.06%
[2]
  CO released with 3 equivalents H2O2: about 10%
[2]; [9]
  CO release rate at 24 hours, CO meter, With 1.5x H2O2: 1.00%
[2]; per 24 hour
  Rate of % CO released by CORCBs, With H2O2: 20.22 ± 0.35%
[3]
  Rate of % CO released by CORCBs, With Fenton Reagent: 72.64 ± 2.57%
[4]
  Decomposition rate at 24 hours, 1H NMR, With 1.5x H2O2: 37.50%
physchem; 37° C.
  Decomposition rate at 24 hours, 1H NMR, Autodecomposition: 0.40%
physchem; D2O, 37° C.
  CO release rate relative to CORCB-1: much slower CO release rates than CORCB-1

## CN1CCC[C@H]1c1ccc[n+](BC(=O)O)c1
[1]
  % CO liberated at 24 hours by CO meter: 0.86%
  CO release (in words), CO meter: much slower rate than the others
  CO release rate at 24 hours, CO meter, Autodecomposition: 0.86%
[2]
  CO release rate at 24 hours, CO meter, With 1.5x H2O2: 0.50%
[4]
  Decomposition rate at 24 hours, 1H NMR, With 1.5x H2O2: 35.90%
physchem; 37° C.
  % decomposed at 24 hours by 1H NMR: 1.0%
  Decomposition rate at 24 hours, 1H NMR, Autodecomposition: 1%
physchem; D2O, 37° C.
  CO release rate relative to CORCB-1: much slower CO release rates than CORCB-1

## NC12CC3CC(CC(C3)C1)C2 [Amantadine, reference compound]
[5]
  cells left (viability): about 20%

## CC(=O)Nc1ccc(OC(=O)B[N+]23CN4CN(CN(C4)C2)C3)cc1 [CORCB-1-TY, hexamethylenetetramine carboacetaminophenborane]
[1]
  % CO liberated at 24 hours by CO meter: 12.3%
  CO release rate at 24 hours, CO meter, Autodecomposition: 12.30%
physchem; 37° C.
  % decomposed at 24 hours by 1H NMR: 11.3%
  Decomposition rate at 24 hours, 1H NMR, Autodecomposition: 11.30%
physchem; D2O, 37° C.
  time to decompose to completion: 12 days

## C[N+](C)(C)[BH2-]C(=O)O [CORCB-3, trimethylamine carboxyborane]
[1]
  CO release (in words), CO meter: negligible
  Rate of % CO released by CORCBs, Autodecomposition: 0.13 ± 0.01%
[2]
  CO released with 3 equivalents H2O2: about 10%
[2]; [9]
  CO release rate at 24 hours, CO meter, With 1.5x H2O2: 2.70%
[2]; per 24 hour
  Rate of % CO released by CORCBs, With H2O2: 18.73 ± 0.24%
RAW264.7 cells; 0.5-10 mM (up to 10 mM), 24 hours
  cytotoxicity / cell growth (in words): not toxic at the levels tested
RAW264.7 cells; same cells as TNF-α assay
  cell viability after the TNF-α assay (in words): all cells remain viable
[3]
  Rate of % CO released by CORCBs, With Fenton Reagent: 76.64 ± 1.33%
[4]
  Decomposition rate at 24 hours, 1H NMR, With 1.5x H2O2: 44.50%
physchem; D2O, 37° C.
  CO release rate relative to CORCB-1: much slower CO release rates than CORCB-1
physchem; as stated in Example 10
  rate of auto-decomposition: ~3 % per day

## C[C@]12CC3CC([NH2+][BH2-]C(=O)O)(C1)C[C@@](C)(C3)C2 [CORCB-4, memantine carboxyborane]
[1]
  CO release rate at 24 hours, CO meter, Autodecomposition: not soluble
physchem; 37° C.
  Decomposition rate at 24 hours, 1H NMR, Autodecomposition: not soluble
[6]
  solubility in water: low solubility in water

## OO [H2O2, hydrogen peroxide, reference compound]
RAW264.7 cells; 1 mM, after 24 hours, untreated cells = 100%
  viability: 44%

## C1N2CN3CN1CN(C2)C3 [HMTA, hexamethylenetetramine, reference compound]
RAW264.7 cells; 2 mM, 24 hours
  cytotoxicity at 2 mM (in words): most cells losing viability

## N.O=C(O)[BH2-][N+]12CN3CN(CN(C3)C1)C2 [NH4-CORCB-1]
[1]
  CO release rate at 24 hours, CO meter, Autodecomposition: 28.70%
physchem; 37° C.
  Decomposition rate at 24 hours, 1H NMR, Autodecomposition: 26.40%

## N.O=C(O)[BH2-][n+]1ccccc1 [NH4-CORCB-2]
[1]
  CO release rate at 24 hours, CO meter, Autodecomposition: not measurable
physchem; 37° C.
  Decomposition rate at 24 hours, 1H NMR, Autodecomposition: 0.03%

## CC12CC3CC(C)(C1)CC([NH2+][BH2-]C(=O)O)(C3)C2.N [NH4-CORCB-4]
[1]
  CO release rate at 24 hours, CO meter, Autodecomposition: not soluble
physchem; 37° C.
  Decomposition rate at 24 hours, 1H NMR, Autodecomposition: 12.80%
physchem; ammonium salt, 12 days, 37° C.
  decomposition in 12 days: about 13%
[6]
  solubility in water: soluble in water

## O=C([O-])[BH2-][N+]12CN3CN(CN(C3)C1)C2.[Na+] [Na-CORCB-1]
[1]
  % CO liberated at 24 hours by CO meter: 33%
  CO release rate at 24 hours, CO meter, Autodecomposition: 33.10%
  Rate of % CO released by CORCB sodium salts, Autodecomposition: 33.12 ± 0.33%
[2]
  Rate of % CO released by CORCB sodium salts, With H2O2: 11.99 ± 0.19%
[3]
  Rate of % CO released by CORCB sodium salts, With Fenton Reagent: 41.61 ± 0.57%
physchem; 37° C.
  % decomposed at 24 hours by 1H NMR: 33.1%
  Decomposition rate at 24 hours, 1H NMR, Autodecomposition: 33.20%

## O=C([O-])[BH2-][n+]1ccccc1.[Na+] [Na-CORCB-2]
[1]
  CO release rate at 24 hours, CO meter, Autodecomposition: 0.36%
  Rate of % CO released by CORCB sodium salts, Autodecomposition: 0.36 ± 0.13%
[2]; sodium salts, per 24 hour
  Rate of % CO released by CORCB sodium salts, With H2O2: 12.66 ± 0.21%
[3]
  Rate of % CO released by CORCB sodium salts, With Fenton Reagent: 43.46 ± 0.73%
physchem; 37° C.
  Decomposition rate at 24 hours, 1H NMR, Autodecomposition: 0.46%

## C[N+](C)(C)[BH2-]C(=O)O [Na-CORCB-3]
[1]
  CO release rate at 24 hours, CO meter, Autodecomposition: not measurable
  Rate of % CO released by CORCB sodium salts, Autodecomposition: 0.14 ± 0.02%
[2]; sodium salts, per 24 hour
  Rate of % CO released by CORCB sodium salts, With H2O2: 7.41 ± 0.16%
[3]
  Rate of % CO released by CORCB sodium salts, With Fenton Reagent: 33.46 ± 0.90%
physchem; 37° C.
  Decomposition rate at 24 hours, 1H NMR, Autodecomposition: not measurable
  auto-decomposition of salts (in words): insignificant amounts of decomposition

## CC12CC3CC(C)(C1)CC([NH2+][BH2-]C(=O)[O-])(C3)C2.[Na+] [Na-CORCB-4, Memantinecarboxyborane sodium salt]
[1]
  CO release rate at 24 hours, CO meter, Autodecomposition: 0.06%
[2]; 1.5 equivalents H2O2, 24 hours
  % CO produced by CO meter with H2O2: 1.6%
[2]; [9]
  CO release rate at 24 hours, CO meter, With 1.5x H2O2: 1.60%
[4]; 1.5 equivalents H2O2, 24 hours, sodium salt
  % decomposition / free amine released by 1H NMR with H2O2: 96.4% and ~100%
[4]
  Decomposition rate at 24 hours, 1H NMR, With 1.5x H2O2: 96.40%
physchem; 37° C.
  Decomposition rate at 24 hours, 1H NMR, Autodecomposition: not measurable
physchem; 37° C., listed as Sodium salt of CORCB-4, sodium salt
  auto-decomposition of salts (in words): insignificant amounts of decomposition
physchem; 37° C., listed as sodium salt of CORCB-4, sodium salt
  auto-decomposition of salts (in words): does not decompose in measurable amount
[6]
  solubility in water: soluble in water

## O=C([O-])[BH2-][NH2+]C12CC3CC(CC(C3)C1)C2.[Na+] [Na-CORCB-6, Amantadine carboxyborane sodium salt]
[1]
  CO release rate at 24 hours, CO meter, Autodecomposition: 0.16%
[2]; [9]
  CO release rate at 24 hours, CO meter, With 1.5x H2O2: 0.80%
[4]
  Decomposition rate at 24 hours, 1H NMR, With 1.5x H2O2: 36.90%
physchem; 37° C.
  Decomposition rate at 24 hours, 1H NMR, Autodecomposition: not measurable
[7]
  viability of normal fibroblast cells (in words): increasing the percent viability of normal fibroblast cells

## Cc1ccc(NC(=O)c2ccc(CN3CCN(C)CC3)cc2)cc1Nc1nccc(-c2cccnc2)n1 [imatinib]
[8]; 20 μM, by 6 days
  cell viability with 20 μM imatinib (in words): killed
[8]; 40 μM, at 4 days
  cell viability with 40 μM imatinib (in words): lose their viability
